Assay results taken from patent US4695577A, “Anti-hypertensive agents” (University of Miami, priority 1979, dated 1987).

Key:
human urinary ACE = target: T1, human urinary ACE (Homo sapiens, UniProt P12821); assay: ACE Activity Assay (hydrolysis of Benzoyl-GlyHisLeu); assay type: biochemical; conditions: purified human urinary ACE, in vitro, pH 8.0, 37° C; read-out: I50
T1 construct: The enzyme preparation was ACE purified from human urine; from tissue; host or cells: human urine
Protocol: These factors include the source of enzyme, its purity, the substrate used and its concentration, and the composition of the assay buffer. All I50 data reported herein have been performed with the same assay system and same enzyme (human urinary ACE) and with an approximately 1/2Km level of substrate and are therefore internally consistent.
To initiate the assay, 40 μl of enzyme and 10 μl of water or inhibitor dissolved in water were preincubated for five minutes at 37° C. […] To terminate the reaction, 1 ml of 0.1 M HCl was added, following which 1 ml of ethyl acetate was added. The mixture was agitated on a rotary mixer and centrifuged briefly to separate the phases.
An aliquot, 500 μl, of the ethyl acetate layer was transferred to a liquid scintillation vial containing 10 ml of Riafluor, trademark New England Nuclear Corporation, Boston, Mass. For determination of I50 values, enzyme activity in the presence of inhibitor at a series of different concentrations was compared to activity in the absence of inhibitor.

[1] = system: Blood pressure response to angiotensin I; assay: Intravenous effectiveness: blood pressure response to angiotensin I in anesthetized rats; assay type: in vivo, rat; conditions: intravenous 2 μmol/kg
Protocol: Rats (190-290 g body weight) were fasted overnight and then anesthetized with intraperitoneal pentobarbital, 50-60 mg/kg. Tracheostomy was performed and the animals were ventilated mechanically. A cannula was inserted into a femoral vein for injection of angiotensin I, and a second cannula was inserted into a common carotid artery for direct measurement of arterial blood pressure. Heparin, 1,000 units, was injected via the femoral vein to prevent coagulation. Blood pressure was measured with a pressure transducer connected to a polygraph. The rats were injected with 400 ng/kg of angiotensin I in 20 μl of 0.9 g % NaCl; an amount of angiotensin I sufficient to raise mean arterial blood pressure by 35 mm Hg. After the responsiveness of a given rat to angiotensin I was established, the named compound at 23 μmole/kg (drug dissolved in 0.15 ml of H2 O plus 10 μl of 1 N NaHCO3 ), was given via a stomach tube. At timed intervals, the effects of 400 ng/kg of angiotensin I on mean arterial blood pressure were tested. Results are shown below:
Anesthetized rats were prepared as described in Example 35. After the responsiveness of a given rat to angiotensin I was established, the named compound, at 2 μmol/kg, in a volume of 15 μl of 0.01 N sodium bicarbonate, was injected via a femoral vein. At timed intervals, the effects of angiotensin I, 400 ng/kg, on mean arterial blood pressure were tested.

T1 sequence (P12821 30-1232 limits assumed): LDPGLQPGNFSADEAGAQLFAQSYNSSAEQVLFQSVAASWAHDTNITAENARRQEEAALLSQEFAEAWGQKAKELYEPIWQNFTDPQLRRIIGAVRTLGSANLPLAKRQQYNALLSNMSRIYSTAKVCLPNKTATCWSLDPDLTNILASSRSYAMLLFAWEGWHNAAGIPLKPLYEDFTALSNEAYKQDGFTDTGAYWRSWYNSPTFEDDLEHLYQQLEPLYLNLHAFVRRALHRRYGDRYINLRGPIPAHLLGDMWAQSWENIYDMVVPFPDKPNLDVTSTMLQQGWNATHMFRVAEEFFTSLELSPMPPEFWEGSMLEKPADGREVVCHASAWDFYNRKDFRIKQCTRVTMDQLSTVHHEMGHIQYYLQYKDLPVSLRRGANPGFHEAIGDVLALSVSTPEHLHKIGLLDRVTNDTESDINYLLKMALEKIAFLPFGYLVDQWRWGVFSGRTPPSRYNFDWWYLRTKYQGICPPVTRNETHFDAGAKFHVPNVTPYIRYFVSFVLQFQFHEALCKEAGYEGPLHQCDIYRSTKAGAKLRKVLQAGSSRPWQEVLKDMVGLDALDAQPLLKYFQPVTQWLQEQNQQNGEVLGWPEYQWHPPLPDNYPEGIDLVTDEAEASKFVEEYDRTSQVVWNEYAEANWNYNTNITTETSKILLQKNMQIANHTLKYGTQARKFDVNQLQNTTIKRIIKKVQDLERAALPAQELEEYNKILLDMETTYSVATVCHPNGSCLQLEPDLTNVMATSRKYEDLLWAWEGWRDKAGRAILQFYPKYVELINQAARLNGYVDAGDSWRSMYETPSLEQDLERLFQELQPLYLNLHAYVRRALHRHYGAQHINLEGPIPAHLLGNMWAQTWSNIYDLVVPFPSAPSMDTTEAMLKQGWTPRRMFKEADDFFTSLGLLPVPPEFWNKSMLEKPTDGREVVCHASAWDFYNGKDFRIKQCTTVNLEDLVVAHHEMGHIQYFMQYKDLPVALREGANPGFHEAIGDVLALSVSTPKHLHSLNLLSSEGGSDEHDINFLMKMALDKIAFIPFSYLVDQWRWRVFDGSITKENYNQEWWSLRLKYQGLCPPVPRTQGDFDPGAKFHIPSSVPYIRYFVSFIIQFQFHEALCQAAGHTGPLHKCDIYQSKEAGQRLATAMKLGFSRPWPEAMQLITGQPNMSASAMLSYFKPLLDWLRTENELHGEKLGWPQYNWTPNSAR

| Compound | IC50 (human urinary ACE) [nM] | Blood pressure response to 400 ng/kg angiotensin I ([1]; 3 min) | Blood pressure response to 400 ng/kg angiotensin I ([1]; 9 min) | Blood pressure response to 400 ng/kg angiotensin I ([1]; 13 min) |
| --- | --- | --- | --- | --- |
| C[C@H](CSC(=O)[C@H](Cc1ccccc1)NC(=O)OC(C)(C)C)C(=O)N1CCC[C@H]1C(=O)O [Example 13, N^α -[3-(N^α -Tertiary-Butyloxycarbonyl-L-Phenylalanylthio)-2-D-Methylpropanoyl]-L-Proline] | 34 | 19 % of control | 19 % of control | 22 % of control |
| C[C@H](CSC(=O)[C@H](Cc1ccccc1)NC(=O)C1CCCC1)C(=O)N1CCC[C@H]1C(=O)O [Example 24, N^α -[3-(N^α -cyclopentylcarbonyl-L-phenylalanylthio)-2-D-methylpropanoyl]-L-proline] | 7.5 |  |  |  |
